From PubChem BioAssay AID2060886 (Molecular Pharmacology Branch, DTP, NCI, 2025)

System: 653999-131-R-J2-PDC complex spheroids, growth inhibition
Experiment: Anticancer human tumor 653999-131-R-J2-PDC patient-derived lung adenocarcinoma cell line growth inhibition [RAS]
Conditions: for IC50: curve of first compound; for viability, T/C: stronger effect = lower value
How it was run: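 Agents were tested in combination matrices in half-log decrements from a top concentration at or near clinical Cmax (10 microM if undetermined). Targets were multi-cell spheroids of tumour lines plus HUVEC and MSC stromal cells.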
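Note: spheroids exposed to the agents for seven days before the readout.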

Structure (SMILES): C=CC(=O)N1CCN(c2nc(OCC3CCCN3C)nc3c(F)c(-c4nc(N)cc(C)c4C(F)(F)F)c(Cl)cc23)C(C)C1 (configuration not stated) + C#Cc1c(F)ccc2cc(O)cc(-c3ncc4c(N5CC6CCC(C5)N6)nc(OCC56CCCN5CC(F)C6)nc4c3F)c12
- IC50 (second compound 0.0316 µM): > 1 µM
- IC50 (second compound 0.1 µM): > 1 µM
- IC50 (second compound 0.316 µM): > 1 µM
- IC50 (second compound 1 µM): > 1 µM
- IC50 (second compound 3.16 µM): < 0.00316 µM
- IC50 (second compound 10 µM): < 0.00316 µM
- viability, T/C (second compound 0.0316 µM, first compound 0.00316 µM): 117%
- viability, T/C (second compound 0.0316 µM, first compound 0.01 µM): 91.3%
- viability, T/C (second compound 0.0316 µM, first compound 0.0316 µM): 95.9%
- viability, T/C (second compound 0.0316 µM, first compound 0.1 µM): 82.3%
- viability, T/C (second compound 0.0316 µM, first compound 0.316 µM): 99.1%
- viability, T/C (second compound 0.0316 µM, first compound 1 µM): 85.2%
- viability, T/C (second compound 0.1 µM, first compound 0.00316 µM): 92.7%
- viability, T/C (second compound 0.1 µM, first compound 0.01 µM): 84.1%
- viability, T/C (second compound 0.1 µM, first compound 0.0316 µM): 73.9%
- viability, T/C (second compound 0.1 µM, first compound 0.1 µM): 78.5%
- viability, T/C (second compound 0.1 µM, first compound 0.316 µM): 83.3%
- viability, T/C (second compound 0.1 µM, first compound 1 µM): 73.1%
- viability, T/C (second compound 0.316 µM, first compound 0.00316 µM): 71.7%
- viability, T/C (second compound 0.316 µM, first compound 0.01 µM): 62.5%
- viability, T/C (second compound 0.316 µM, first compound 0.0316 µM): 65.6%
- viability, T/C (second compound 0.316 µM, first compound 0.1 µM): 67.8%
- viability, T/C (second compound 0.316 µM, first compound 0.316 µM): 70.2%
- viability, T/C (second compound 0.316 µM, first compound 1 µM): 52.8%
- viability, T/C (second compound 1 µM, first compound 0.00316 µM): 41.5%
- viability, T/C (second compound 1 µM, first compound 0.01 µM): 63%
- viability, T/C (second compound 1 µM, first compound 0.0316 µM): 54%
- viability, T/C (second compound 1 µM, first compound 0.1 µM): 53.8%
- viability, T/C (second compound 1 µM, first compound 0.316 µM): 55.4%
- viability, T/C (second compound 1 µM, first compound 1 µM): 46.5%
- viability, T/C (second compound 3.16 µM, first compound 0.00316 µM): 38%
- viability, T/C (second compound 3.16 µM, first compound 0.01 µM): 55.2%
- viability, T/C (second compound 3.16 µM, first compound 0.0316 µM): 39%
- viability, T/C (second compound 3.16 µM, first compound 0.1 µM): 35%
- viability, T/C (second compound 3.16 µM, first compound 0.316 µM): 43.8%
- viability, T/C (second compound 3.16 µM, first compound 1 µM): 31.4%
- viability, T/C (second compound 10 µM, first compound 0.00316 µM): 24.5%
- viability, T/C (second compound 10 µM, first compound 0.01 µM): 26.7%
- viability, T/C (second compound 10 µM, first compound 0.0316 µM): 20.8%
- viability, T/C (second compound 10 µM, first compound 0.1 µM): 31.9%
- viability, T/C (second compound 10 µM, first compound 0.316 µM): 27%
- viability, T/C (second compound 10 µM, first compound 1 µM): 29.6%
